Laboratory results as given in paper PMC8344022, “Small-molecule inhibitor of AF9/ENL-DOT1L/AF4/AFF4 interactions suppresses malignant gene expression and tumor growth” (Theranostics, 2021).
No end group written: not given here. *: point of attachment. FITC = O=C1OC2(c3ccc(O)cc3Oc3cc(O)ccc32)c2ccc(NC(=S)*)cc21; Ahx = NCCCCCC(=O)O

T1: AF9-DOT1L interaction (Homo sapiens, UniProt P42568)
T1 construct: cDNA for human AF9 AHD domain (475-568) and ENL AHD domain (489-559) was synthesized; made in house; host or cells: E. coli BL21(DE3)
T1 sequence (P42568 475-568): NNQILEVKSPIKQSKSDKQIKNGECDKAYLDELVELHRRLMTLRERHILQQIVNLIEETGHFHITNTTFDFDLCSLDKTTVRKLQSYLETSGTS

T2: maltose-binding protein (MBP)-tagged ENL AHD domain (489-559) (human, UniProt Q03111 489-559)
T2 construct: human ENL, AHD domain, residues 489-559; cDNA synthesized by Genscript, in pMAL c5X; No cleavage of MBP is described; source: E. coli BL21(DE3), purified (amylose resin, size exclusion)
T2 sequence (looked up): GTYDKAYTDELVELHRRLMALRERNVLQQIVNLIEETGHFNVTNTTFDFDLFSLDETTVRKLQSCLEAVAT

T3: maltose-binding protein (MBP)-tagged AF9 AHD domain (475-568) (human, UniProt P42568 475-568)
T3 construct: human AF9, AHD domain, residues 475-568; cDNA synthesized by Genscript, in pMAL c5X; No cleavage of MBP is described; the protein is captured or detected by anti-MBP in the Alpha and pull-down assays; also called MBP-AF9 AHD; source: E. coli BL21(DE3), purified (amylose resin, size exclusion)
T3 sequence (looked up): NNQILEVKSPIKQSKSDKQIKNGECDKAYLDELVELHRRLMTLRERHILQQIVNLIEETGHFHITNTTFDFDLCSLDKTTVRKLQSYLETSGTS


Columns and labels:
AF9-DOT1L interaction [1] = target: T1, AF9-DOT1L interaction; assay: Alpha assay, AF9 AHD-DOT1L peptide interaction; assay type: binding; details: for IC50: read-out: IC50, inhibition of AF9-DOT1L interaction
Source text: (§1) We developed an Alpha (amplified luminescent proximity homogeneous assay) assay to determine the binding and inhibition of the PPI between maltose-binding protein (MBP)-tagged AF9 AHD and a biotin-labeled DOT1L peptide, using AlphaLisa streptavidin donor beads and anti-MBP acceptor beads. Laser excitation to the donor beads generates singlet oxygen radicals, which can travel for <200 nm in solution and cannot reach the free acceptor beads. The PPI brings the DOT1L coated donor beads and AHD coated acceptor beads together, allowing the radicals to activate the acceptor beads and produce luminescence. […] We also developed a fluorescence polarization (FP) assay. A fluorescein-labeled DOT1L peptide has a higher freedom in solution with a lower polarization value.
(§2) Alpha assays. Alpha assays were developed using Perkin-Elmer AlphaLisa anti-MBP kit, which contains streptavidin donor beads and anti-MBP acceptor beads. The assay was performed using a MBP-protein (5 nM), a biotinylated peptide (40 nM), and increasing concentrations of a compound in 25 µL buffer (PBS with 0.5 % BSA, pH 7.5) in 384-well plates according to the manufacturer's protocol and measured with a Tecan SPARK microplate reader. Data were imported into Prism (version 5.0), and IC50 values from 3 independent experiments with standard deviation were obtained by using a standard dose-response curve fitting.

AF9-AF4 interaction = target: T4, AF9-AF4 interaction (Homo sapiens, UniProt P42568); assay: Alpha assay, AF9-AF4 interaction; assay type: binding; details: read-out: IC50, inhibition of AF9-AF4 interaction
T4 construct: cDNA for human AF9 AHD domain (475-568) and ENL AHD domain (489-559) was synthesized; made in house; host or cells: E. coli BL21(DE3)
Experimental: (§3) ENL is also a major MLL fusion partner (~10%). The AHD domains of human ENL and AF9 share a high homology with 82% identity and 89% similarity (Figure S1A). […] Our attempts to develop an Alpha assay for ENL-DOT1L failed. […] Compound 1's activity against ENL-DOT1L was therefore not determined.
as §2

AF9-DOT1L interaction [2] = target: T1, AF9-DOT1L interaction; assay: Fluorescence polarization (FP) inhibition assay, AF9-DOT1L; assay type: binding
Source text: as §1
Fluorescence polarization assay. It was performed in 96-well black microplates with each well containing a Fluorescein-labeled peptide (2 nM) and increasing concentration of a AF9/ENL protein in a buffer (20 mM HEPES, pH 7.5, 0.01% Triton X-100, 100 µL) for Kd determination. For IC50 determination, a Fluorescein-labeled peptide (2 nM), AF9/ENL protein (100 nM) and increasing concentration of a compound in the same buffer were placed in each well. Upon incubation of 1h, the FP value of each well was determined using a Tecan SPARK microplate reader. Data were similarly processed to obtain Kd or IC50 values.

ENL-AFF4 interaction = target: T5, ENL-AFF4 interaction (Homo sapiens, UniProt Q03111); assay: Alpha assay, ENL-AFF4 interaction; assay type: binding; details: read-out: IC50, inhibition of ENL-AFF4 interaction
T5 construct: ENL AHD domain (489-559) was synthesized (by Genscript) and inserted into the pMAL c5X expression plasmid; made in house; host or cells: E. coli BL21(DE3)
Experimental: as §3, §2

ENL-AF4 interaction = target: T6, ENL-AF4 interaction (Homo sapiens, UniProt Q03111); assay: Alpha assay, ENL-AF4 interaction; assay type: binding; details: read-out: IC50, inhibition of ENL-AF4 interaction
T6 construct: ENL AHD domain (489-559) was synthesized (by Genscript) and inserted into the pMAL c5X expression plasmid; made in house; host or cells: E. coli BL21(DE3)
Experimental: as §3, §2

AF9-AFF4 interaction = target: T7, AF9-AFF4 interaction (Homo sapiens, UniProt P42568); assay: Alpha assay, AF9-AFF4 interaction; assay type: binding; details: read-out: IC50, inhibition of AF9-AFF4 interaction
T7 construct: cDNA for human AF9 AHD domain (475-568) and ENL AHD domain (489-559) was synthesized; made in house; host or cells: E. coli BL21(DE3)
Experimental: as §3, §2

[3] = target: T2, maltose-binding protein (MBP)-tagged …; assay: fluorescence polarisation; direct titration: fluorescein-labeled peptide 2 nM, increasing concentration of AF9/ENL protein; 20 mM HEPES, pH 7.5, 0.01% Triton X-100; 1 h incubation; details: both partners purified
[4] = target: T3, maltose-binding protein (MBP)-tagged …; assay: as above; details: both partners purified

Molecule	IC50 (AF9-DOT1L interaction [1])	Kd [3]	Kd [4]	also measured
CC(C)(C)c1ccc(-n2cc(C(=O)NCC3CCNCC3)nc2-c2ccccc2)cc1 [Compound 8]	29200 nM	–	–	–
NKLPVSIPLASVVLPSRAERARST [DOT1L]	13 ± 1 nM	–	–	IC50 (AF9-AF4 interaction): 60 ± 12 nM; IC50 (AF9-DOT1L interaction [2]): 72 nM; IC50 (ENL-AFF4 interaction): 2000 ± 100 nM; IC50 (ENL-AF4 interaction): 13200 ± 1100 nM; IC50 (AF9-AFF4 interaction): 95 ± 16 nM

Further lines, with some results ahead:

IC50 (AF9-DOT1L interaction [1])	Kd [3]	Kd [4]	Molecule	also measured
> 50000 nM	–	–	CC(C)(C)c1ccc(-n2cc(C(=O)Nc3ccc(Cl)c(F)c3)nc2-c2ccccc2)cc1 [Compound 9]	IC50, inhibition of AF9-DOT1L interaction (AF9-DOT1L interaction [1]): inactive
–	640 ± 60 nM	87 ± 9 nM	{FITC-Ahx}-NKLPVSIPLASVVLPSRAERARST (Used in the FP assay; also called fluorescein-labeled DOT1L peptide; source: synthetic peptide, bought: Genscript) [FITC-AHX-DOT1L peptide]	–
–	9.6 ± 1.7 nM	18 ± 1 nM	{FITC-Ahx}-QSLMVKITLDLLSRIPQPPGK (Used in the FP assay; source: synthetic peptide, bought: Genscript) [FITC-AHX-AF4 peptide]	–
–	31 ± 6 nM	15 ± 1 nM	{FITC-Ahx}-YPLIVKIDLNLLTRIPGKPYK (Used in the FP assay; source: synthetic peptide, bought: Genscript) [FITC-AHX-AFF4 peptide]	–
